# Data taken from patent US9347077B2, “Over-expression of a putative oxidoreductase (UcpA) for increasing furfural or 5-hydroxymethylfurfural tolerance” (UNIVERSITY OF FLORIDA RESEARCH FOUNDATION, INCORPORATED, priority 2011, dated 2016).
# Key:
# UcpA = target: T1, UcpA (Escherichia coli, UniProt P37440, T153Q); type: biochemical; conditions: lysates of induced LY180 (pLOI4856) vs empty vector control, appropriate cofactors
# T1 construct: made in house; host or cells: E. coli LY180 (pLOI4856), IPTG-induced; clarified cell lysate, not purified
# T1 sequence (P37440 whole entry T153Q): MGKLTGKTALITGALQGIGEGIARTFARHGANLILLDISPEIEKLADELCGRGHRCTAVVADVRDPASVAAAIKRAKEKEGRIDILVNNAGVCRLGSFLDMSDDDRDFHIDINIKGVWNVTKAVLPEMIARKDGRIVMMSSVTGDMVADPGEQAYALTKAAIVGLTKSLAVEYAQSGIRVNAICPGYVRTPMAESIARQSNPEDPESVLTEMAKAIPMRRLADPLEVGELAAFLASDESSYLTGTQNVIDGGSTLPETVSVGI
# Procedure: Cultures were grown overnight to a cell density of approximately 0.66 mg dcw ml^−1 (37° C.) in closed tubes containing 20 ml AM1 (50 g liter^−1 xylose, 0.1 mM IPTG and 12.5 mg liter^−1 ampicillin). Cells were harvested by centrifugation (7,000 g for 5 min, 4° C.), washed twice with 10 ml of cold sodium phosphate buffer (50 mM pH 7.0), resuspended to a cell density of 4.4 mg dcw ml^−1, and disrupted in buffer containing 1 mM dithiothreitol using a Fastprep-24 (MP Biomedicals, Solon, Ohio). After clarification at 13,000 g (10 min, 4° C.), protein concentration was determined using a BCA™ Protein Assay Kit (Thermo Scientific, Rockford, Ill.). Furfural-dependent reduction was measured using NADH and NADPH by monitoring the decrease in absorbance at 340 nm (extinction coefficient of NADH of 6,220 M^−1 cm^−1; extinction coefficient of NADPH of […]). Reaction mixtures contained 200 mM phosphate buffer (pH 7.0), 10 mM furfural, and 0.2 mM NADH or NADPH. NADH-dependent and NADPH-dependent reduction of 5-HMF (10 mM) was measured in a similar fashion.
# Additional compounds (ethanol, glycerol, n-butanol, 2-propanol, methanol, acetoin, diacetyl, methyglyoxal, dihydroxyacetone, acetaldehyde, and 1,3-propandiol) were tested as potential substrates for UcpA using appropriate cofactors.
# LY180 (pLOI4856) = assay: Furfural toxicity / MIC in tube cultures, ucpA plasmid; type: cell-based, Escherichia coli
# Procedure: (§1) Furfural toxicity was measured in tube cultures (13 mm by 100 mm) containing 4 ml of AM1 medium with 50 g liter^−1 xylose, 12.5 mg liter^−1 ampicillin, furfural, and other supplements as indicated (Miller et al., 2009a, b). Cultures were inoculated to an initial density of 22 mg dcw liter^−1. IPTG (0.1 mM) was included for fucO induction. Cell mass was measured at 550 nm after incubation for 48 h (37° C.). For cysteine supplement experiment, the culture condition was the same but included 0.1 mM cysteine as an amendment.
# (§2) Derivatives of LY180 containing these plasmids were tested for furfural tolerance with (0.1 mM IPTG) and without IPTG induction using an MIC assay (Miller et al., 2009a; Miller et al., 2010; Wang et al., 2011b).
# LY180(pTrc99A) = assay: Furfural toxicity / MIC in tube cultures, vector control; type: cell-based, Escherichia coli
# Procedure: as §1, §2
# YqhD = YqhD (Escherichia coli, UniProt Q46856); conditions: read-out: Km for NADPH; cited from earlier work
# YqhD, sequence (Q46856 whole entry): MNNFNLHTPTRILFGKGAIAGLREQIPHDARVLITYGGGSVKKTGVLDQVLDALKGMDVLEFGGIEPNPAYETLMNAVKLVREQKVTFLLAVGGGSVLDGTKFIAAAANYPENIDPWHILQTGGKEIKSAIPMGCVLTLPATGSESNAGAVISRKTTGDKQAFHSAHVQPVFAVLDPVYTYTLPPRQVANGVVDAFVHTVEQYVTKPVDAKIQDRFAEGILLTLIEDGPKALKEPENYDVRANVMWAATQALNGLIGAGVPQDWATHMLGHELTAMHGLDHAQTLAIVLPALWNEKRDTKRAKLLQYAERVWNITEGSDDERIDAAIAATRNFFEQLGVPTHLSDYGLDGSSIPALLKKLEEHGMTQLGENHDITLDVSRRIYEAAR
# [1] = Escherichia coli, read-out: MIC for 5-HMF
Compound,Metabolism as substrate for UcpA (UcpA),other results
"OCCCO [1,3-propandiol]",none appeared to be metabolized,
CC(C)O [2-propanol],none appeared to be metabolized,
"O=Cc1ccc(CO)o1 [5-HMF, 5-hydroxymethylfurfural]",,MIC (LY180 (pLOI4856); [1]): 20 mM; MIC (LY180(pTrc99A); [1]): 16 mM
"N[C@@H](CS)C(=O)O [L-cysteine, reference compound]",,"Effect of L-cysteine supplement on growth in the presence of furfural (LY180 (pLOI4856); 0.1 mM L-cysteine, 10 mM furfural, ucpA induced): did not alter the growth; Effect of L-cysteine supplement on growth in the presence of furfural (LY180(pTrc99A); 0.1 mM L-cysteine, 10 mM furfural): cell growth was increased"
CC=O [acetaldehyde],none appeared to be metabolized,
CC(=O)C(C)O (stereo not drawn) [acetoin],none appeared to be metabolized,
CC(=O)C(C)=O [diacetyl],none appeared to be metabolized,
CCO [ethanol],none appeared to be metabolized,
OCC(O)CO [glycerol],none appeared to be metabolized,
CO [methanol],none appeared to be metabolized,
CCCCO [n-butanol],none appeared to be metabolized,
NADPH,,Km (YqhD): 0.008 mM
methyglyoxal,none appeared to be metabolized,
